pIC50: −log10 of the molar value.
Tested on: SYO-1 tumor spheroids, viability % test/control
Assay: Anticancer human tumor SYO-1 cell line growth inhibition;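 note: spheroids exposed to agents for 7 days before viability read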;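 for viability, T/C: 100% = DMSO vehicle control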
Conditions: spheroids with HUVEC and MSC; for pIC50: curve of first compound; for viability, T/C: stronger effect = lower value
Excerpt: Multicellular complex tumor spheroid response to DNA repair inhibitors in combination with DNA-damaging drugs
This study explores the anticancer activities of DNA-damaging drugs and inhibitors of DNA damage repair, both as single agents and in combinations. Complex tumor spheroids comprised of malignant cells, endothelial cells and mesenchymal stem cells served as an in vitro model for human solid tumors. This model system incorporates physiologically relevant features and patient-derived or established malignant cell lines with clinically relevant genetic alterations from many tumor types. Twenty-six patient-derived or established malignant cell lines were evaluated representing sarcoma, melanoma, small cell lung cancer (SCLC), non-small cell lung cancer (NSCLC), as well as bladder, ovarian and pancreatic cancers. The concentration ranges selected for each drug and investigational agent were based upon clinically achievable concentrations if the clinical Cmax of the agent was known.
Compounds. The drugs and compounds olaparib (NSC753686), talazoparib (NSC767125), berzosertib (NSC777718), elimusertib (NSC800525), nedisertib (NSC802822), VX-984 (NSC792969), AZD-1390 (NSC803789), temozolomide (NSC362856), topotecan (NSC609699), trabectedin (NSC813783), staurosporine (NSC755774), and gemcitabine (NSC613327) were obtained from the National Cancer Institute (NCI) Developmental Therapeutics Program Chemical Repository. The FDA-approved anticancer drug set is available from the Developmental Therapeutics Program at https://dtp.cancer.gov/organization/dscb/obtaining/available_plates.htm. […] The stock solutions were prepared in dimethyl sulfoxide (DMSO, Sigma-Aldrich, St. Louis, MO, cat. D2650) at 400-fold the tested concentration and stored at -70 degrees C. Prior to their use, the stock solutions were diluted in fresh medium and the final DMSO concentration in the assay was 0.25% (v/v). All drugs and investigational agents were tested over a range starting from a high concentration at or near the clinical Cmax and decreasing in half-log increments. If the clinical Cmax for an agent had not been determined, the highest concentration tested was 10 microM.
Cell Lines. The patient-derived cancer cell (PDC) lines: 156681-154-R-J1-PDC, 283228-195-R-J1-PDC, 287954-098-R-J1-PDC, 292921-168-R-J2-PDC, 349418-098-R-PDC, 425362-245-T-J1-PDC, 556581-035-R-J1-PDC, and BL0293-F563-PDC were received from the NCI Patient-Derived Models Repository (PDMR, https://pdmr.cancer.gov). The established cell lines HS-SY-2 (RRID:CVCL_8719), MPNST, and SYO-1 (RRID:CVCL_7146) were obtained from the Sloan Kettering Institute. The alveolar soft parts sarcoma cell line ASPS-1 (RRID:CVCL_S738) was established at the NCI and grown from internal seed stocks. The following established cell lines were purchased from the American Type Culture Collection (ATCC, Manassas, VA): G-401 (ATCC, cat. CRL-1441, RRID:CVCL_0270), SW982 (ATCC, cat. HTB-93, RRID:CVCL_1734), VA-ES-BJ (ATCC, cat. CRL-2138, RRID:CVCL_1785), NCI-H719 (ATCC, cat. CRL-5837, RRID:CVCL_1582), NCI-H196 (ATCC, cat. CRL-5823, RRID:CVCL_1509), NCI-H841 (ATCC, cat. CRL-5845, RRID:CVCL_1595), NCI-H1618 (ATCC, cat. CRL-5879, RRID:CVCL_1480), NCI-H1876 (ATCC, cat. CRL-5902, RRID:CVCL_1503), DMS 114 (ATCC, cat. CRL-2066; RRID:CVCL_1174), NCI-H211 (ATCC, cat. CRL-5824; RRID:CVCL_1529), and SW 1271 (ATCC, cat. CRL-2177, RRID:CVCL_1716). The small cell lung cancer cell line COR-L88 was purchased from Sigma-Aldrich (cat. 92031917-1VL, RRID:CVCL_1141). The non-small cell lung cancer cell lines NCI-H226 (RRID:CVCL_1544) and NCI-H322M (RRID:CVCL_1557) were established at the NCI and grown from internal seed stocks. Pooled donor human umbilical vein endothelial cells (HUVEC, Lonza, cat. CC-2519) and human mesenchymal stem cells (hMSC, Lonza, cat. PT-2501) were purchased from Lonza (Walkersville, MD).
Cell Culture. All cells were maintained in an incubator at 37 degrees C and 5% CO2 with 95% humidity. […]

Cc1cc(C)c(CNC(=O)c2cc(-c3ccc(CN4CCOCC4)cc3)cc3c2cnn3C2CCCC2)c(=O)[nH]1 + Cn1nnc2c(C(N)=O)ncn2c1=O
pIC50 (second compound 1 µM): < 5.00 | pIC50 (second compound 3.16 µM): < 5.00 | pIC50 (second compound 10 µM): < 5.00 | pIC50 (second compound 31.6 µM): < 5.00 | pIC50 (second compound 100 µM): 5.10 | viability, T/C (second compound 1 µM, first compound 0.0316 µM): 106% | viability, T/C (second compound 1 µM, first compound 0.1 µM): 105% | viability, T/C (second compound 1 µM, first compound 0.316 µM): 110% | viability, T/C (second compound 1 µM, first compound 1 µM): 104% | viability, T/C (second compound 1 µM, first compound 3.16 µM): 106% | viability, T/C (second compound 1 µM, first compound 10 µM): 97% | viability, T/C (second compound 3.16 µM, first compound 0.0316 µM): 103% | viability, T/C (second compound 3.16 µM, first compound 0.1 µM): 106% | viability, T/C (second compound 3.16 µM, first compound 0.316 µM): 103% | viability, T/C (second compound 3.16 µM, first compound 1 µM): 104% | viability, T/C (second compound 3.16 µM, first compound 3.16 µM): 105% | viability, T/C (second compound 3.16 µM, first compound 10 µM): 89.6% | viability, T/C (second compound 10 µM, first compound 0.0316 µM): 103% | viability, T/C (second compound 10 µM, first compound 0.1 µM): 106% | viability, T/C (second compound 10 µM, first compound 0.316 µM): 106% | viability, T/C (second compound 10 µM, first compound 1 µM): 108% | viability, T/C (second compound 10 µM, first compound 3.16 µM): 101% | viability, T/C (second compound 10 µM, first compound 10 µM): 71.2% | viability, T/C (second compound 31.6 µM, first compound 0.0316 µM): 106% | viability, T/C (second compound 31.6 µM, first compound 0.1 µM): 108% | viability, T/C (second compound 31.6 µM, first compound 0.316 µM): 107% | viability, T/C (second compound 31.6 µM, first compound 1 µM): 111% | viability, T/C (second compound 31.6 µM, first compound 3.16 µM): 105% | viability, T/C (second compound 31.6 µM, first compound 10 µM): 74.6% | viability, T/C (second compound 100 µM, first compound 0.0316 µM): 107% | viability, T/C (second compound 100 µM, first compound 0.1 µM): 111% | viability, T/C (second compound 100 µM, first compound 0.316 µM): 107% | viability, T/C (second compound 100 µM, first compound 1 µM): 101% | viability, T/C (second compound 100 µM, first compound 3.16 µM): 76.1% | viability, T/C (second compound 100 µM, first compound 10 µM): 43.7%

COc1ccc([C@@H](O)c2cc(-c3ncnc4cc(N5CCOCC5)ccc34)c(F)cc2Cl)nn1 + CC[C@@]1(O)C(=O)OCc2c1cc1n(c2=O)Cc2cc3c(CN(C)C)c(O)ccc3nc2-1
pIC50 (second compound 0.003 µM): 5.75 | pIC50 (second compound 0.00949 µM): > 7.50 | pIC50 (second compound 0.03 µM): > 7.50 | pIC50 (second compound 0.0949 µM): > 7.50 | pIC50 (second compound 0.3 µM): > 7.50 | viability, T/C (second compound 0.003 µM, first compound 0.0316 µM): 94.3% | viability, T/C (second compound 0.003 µM, first compound 0.1 µM): 99.1% | viability, T/C (second compound 0.003 µM, first compound 0.316 µM): 94.7% | viability, T/C (second compound 0.003 µM, first compound 1 µM): 87.6% | viability, T/C (second compound 0.003 µM, first compound 3.16 µM): 11.8% | viability, T/C (second compound 0.003 µM, first compound 10 µM): 2.63% | viability, T/C (second compound 0.00949 µM, first compound 0.0316 µM): 41.7% | viability, T/C (second compound 0.00949 µM, first compound 0.1 µM): 33.1% | viability, T/C (second compound 0.00949 µM, first compound 0.316 µM): 44.8% | viability, T/C (second compound 0.00949 µM, first compound 1 µM): 17.1% | viability, T/C (second compound 0.00949 µM, first compound 3.16 µM): 1.57% | viability, T/C (second compound 0.00949 µM, first compound 10 µM): 0.79% | viability, T/C (second compound 0.03 µM, first compound 0.0316 µM): 1.67% | viability, T/C (second compound 0.03 µM, first compound 0.1 µM): 1.43% | viability, T/C (second compound 0.03 µM, first compound 0.316 µM): 1.42% | viability, T/C (second compound 0.03 µM, first compound 1 µM): 0.87% | viability, T/C (second compound 0.03 µM, first compound 3.16 µM): 0.63% | viability, T/C (second compound 0.03 µM, first compound 10 µM): 0.71% | viability, T/C (second compound 0.0949 µM, first compound 0.0316 µM): 1.2% | viability, T/C (second compound 0.0949 µM, first compound 0.1 µM): 1.26% | viability, T/C (second compound 0.0949 µM, first compound 0.316 µM): 1.18% | viability, T/C (second compound 0.0949 µM, first compound 1 µM): 1.01% | viability, T/C (second compound 0.0949 µM, first compound 3.16 µM): 0.75% | viability, T/C (second compound 0.0949 µM, first compound 10 µM): 0.54% | viability, T/C (second compound 0.3 µM, first compound 0.0316 µM): 1.43% | viability, T/C (second compound 0.3 µM, first compound 0.1 µM): 1.86% | viability, T/C (second compound 0.3 µM, first compound 0.316 µM): 1.46% | viability, T/C (second compound 0.3 µM, first compound 1 µM): 0.88% | viability, T/C (second compound 0.3 µM, first compound 3.16 µM): 0.2% | viability, T/C (second compound 0.3 µM, first compound 10 µM): 0.21%

— PubChem BioAssay AID1845219 (Molecular Pharmacology Branch, DTP, NCI, 2023)
